Tests used:
[1] = test system: human intestinal epithelial cells (FHs 74 Int); assay: CCK-8 cell viability: alleviation of proliferative toxicity of anti-tumor agents on FHs 74 Int (Table 8-4); type: cell-based; conditions: NO-NSAID 100 μM
Procedure, shortened: (§1)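 Cells seeded at 5,000-10,000 per well and exposed to anti-tumor agent (DMSO solvent) alone or with NO-NSAID (ethanol or water solvent), with solvent controls used for correction. Viability read by CCK-8 after 24-48 hours; proliferative toxicity and its alleviation compared by t test.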

[2] = test system: hand-foot syndrome caused by anti-tumor agents; assay: Treatment of established hand-foot syndrome caused by anti-tumor agents in rats (Table 4); type: in vivo
Procedure, shortened: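 Rats (about 200 g), 10 per group, given anti-tumor agent by gavage (Cremophor EL:ethanol 1:1, diluted about 3 times with PBS), treated for established hand-foot syndrome with NO-NSAID ointment. Control rate is the blank-group incidence minus the treatment-group incidence.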

[3] = test system: hand-foot syndrome caused by macromolecular anti-tumor agents; assay: Prevention of hand-foot syndrome caused by macromolecular protein inhibitors in rats (Table 3); type: in vivo
[4] = test system: chemotherapy-induced hand-foot syndrome; assay: Prevention of chemotherapy-induced hand-foot syndrome in rat models (Table 5); type: in vivo, SD rats
Procedure, shortened: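 SD rats (~200 g, 10 per group) received chemotherapy drugs by gavage at 1 mL/100 g, then NO-NSAID ointment or blank ointment was applied to the paws. Hand-foot syndrome incidence was recorded, and control rate was taken as blank-group incidence minus treated-group incidence.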

[5] = test system: human immortalized keratinocytes (HaCaT); assay: CCK-8 cell viability: alleviation of proliferative toxicity of anti-tumor agents on HaCaT (Table 8-1); type: cell-based; conditions: NO-NSAID 100 μM, percentage increase in viable cells vs anti-tumor agent alone
Procedure, shortened: as §1

[6] = test system: gastric epithelial cells (GES-1); assay: CCK-8 cell viability: alleviation of proliferative toxicity of anti-tumor agents on GES-1 (Table 8-3); type: cell-based, human; conditions: NO-NSAID 100 μM
Procedure, shortened: as §1

[7] = test system: human oral keratinocytes (HOK); assay: CCK-8 cell viability: alleviation of proliferative toxicity of anti-tumor agents on HOK (Table 8-2); type: cell-based; conditions: NO-NSAID 100 μM
Procedure, shortened: as §1

`COc1ccc2cc(C(C)C(=O)OCCCCO[N+](=O)[O-])ccc2c1` (stereo not drawn) [Compound A5] was tested, and the “Response rate % (average)” value ([1]; Afatinib (10 μM)) was 34%, the “Response rate % (average)” value ([1]; Cabozantinib (5 μM)) was 36% and the “Response rate % (average)” value ([1]; Dabrafenib (10 μM)) was −3%. For the same molecule, the “Response rate % (average)” value ([1]; Everolimus (5 μM)) was 28%, the “Response rate % (average)” value ([1]; Infigratinib (15 μM)) was 16% and the “Response rate % (average)” value ([1]; Lapatinib (5 μM)) was 43%. For the same molecule, the “Response rate % (average)” value ([1]; Lenvatinib (10 μM)) was 32%, the “Response rate % (average)” value ([1]; Olmutinib (10 μM)) was 31% and the “Response rate % (average)” value ([1]; Regorafenib (5 μM)) was 17%. For the same molecule, the “Response rate % (average)” value ([1]; Selumetinib (5 μM)) was 23%, the “Response rate % (average)” value ([1]; Sorafenib (5 μM)) was 24% and the “Response rate % (average)” value ([1]; Sunitinib (5 μM)) was 38%. The Response rate ([2]; Apatinib 105 mg/kg once every two days, ointment 2.50% wt, Days 6) was 28.57%, the Response rate ([2]; Cabozantinib 50 mg/kg once every two days, ointment 1% wt, Days 11) was 33.33% and the Response rate ([2]; Encorafenib 80 mg/kg once every two days, ointment 2.50% wt, Days 7) was 40.00%. The Response rate ([2]; Erdafitinib 45 mg/kg once every two days, ointment 2.50% wt, Days 13) was 40.00%, the Response rate ([2]; Fruquintinib 40 mg/kg once every two days, ointment 2.50% wt, Days 8) was 28.57% and the Response rate ([2]; Lenvatinib 65 mg/kg once a day, ointment 2.50% wt, Days 12) was 42.86%. The Response rate ([2]; Olmutinib 100 mg/kg once every two days, ointment 2.50% wt, Days 10) was 50.00%, the Response rate ([2]; Regorafenib 90 mg/kg once every two days, ointment 5% wt, Days 6) was 57.14% and the Response rate ([2]; Sorafenib 80 mg/kg once every two days, ointment 2.50% wt, Days 5) was 50.00%. It also gave a Response rate ([2]; Sunitinib 120 mg/kg once every two days, ointment 2.50% wt, Days 7) of 33.33%, a Control rate ([3]; Bevacizumab, 5-FU combination, tail vein injection once a week, ointment 2.50% wt, Days 18) of 50.00% and a Control rate ([3]; Bevacizumab, 5-FU combination, tail vein injection once a week, ointment 5% wt, Days 18) of 66.67%. The Control rate ([3]; Ramucirumab combined with paclitaxel, intraperitoneal injection once a week, ointment 2.50% wt, Days 23) was 33.33%, the Control rate ([3]; Ramucirumab combined with paclitaxel, intraperitoneal injection once a week, ointment 5% wt, Days 23) was 50.00% and the Control rate ([4]; Acelarin 130 mg/kg twice a week, ointment 1% wt, Days 30) was 28.57%. The Control rate ([4]; Acelarin 130 mg/kg twice a week, ointment 2.50% wt, Days 30) was 57.14%, the Control rate ([4]; Capecitabine 4000 mg/kg once a day, ointment 1% wt, Days 40) was 12.50% and the Control rate ([4]; Capecitabine 4000 mg/kg once a day, ointment 2.50% wt, Days 40) was 22.22%. It also gave a Control rate ([4]; Capecitabine 4000 mg/kg once a day, ointment 5% wt, Days 40) of 50.00%, a Control rate ([4]; Cytarabine 120 mg/kg twice a day, ointment 1% wt, Days 30) of 14.29% and a Control rate ([4]; Cytarabine 120 mg/kg twice a day, ointment 2.50% wt, Days 30) of 28.57%. For the same molecule, the Control rate ([4]; Cytarabine 120 mg/kg twice a day, ointment 5% wt, Days 30) was 57.14%, the Control rate ([4]; Doxorubicin 7 mg/kg once every three days, ointment 1% wt, Days 30) was 37.50% and the Control rate ([4]; Doxorubicin 7 mg/kg once every three days, ointment 2.50% wt, Days 30) was 50.00%. For the same molecule, the “Response rate % (average)” value ([5]; Afatinib (10 μM)) was 32%, the “Response rate % (average)” value ([5]; Cabozantinib (5 μM)) was 44% and the “Response rate % (average)” value ([5]; Dabrafenib (10 μM)) was 7%. The “Response rate % (average)” value ([5]; Everolimus (5 μM)) was 9%, the “Response rate % (average)” value ([5]; Infigratinib (15 μM)) was 12% and the “Response rate % (average)” value ([5]; Lapatinib (5 μM)) was 41%. For the same molecule, the “Response rate % (average)” value ([5]; Lenvatinib (10 μM)) was 9%, the “Response rate % (average)” value ([5]; Olmutinib (10 μM)) was 40% and the “Response rate % (average)” value ([5]; Regorafenib (5 μM)) was 22%. The “Response rate % (average)” value ([5]; Selumetinib (5 μM)) was 13%, the “Response rate % (average)” value ([5]; Sorafenib (5 μM)) was 31% and the “Response rate % (average)” value ([5]; Sunitinib (5 μM)) was 33%. For the same molecule, the “Response rate % (average)” value ([6]; Afatinib (10 μM)) was 18%, the “Response rate % (average)” value ([6]; Cabozantinib (5 μM)) was 37% and the “Response rate % (average)” value ([6]; Dabrafenib (10 μM)) was 12%. For the same molecule, the “Response rate % (average)” value ([6]; Everolimus (5 μM)) was 33%, the “Response rate % (average)” value ([6]; Infigratinib (15 μM)) was 36% and the “Response rate % (average)” value ([6]; Lapatinib (5 μM)) was 40%. The “Response rate % (average)” value ([6]; Lenvatinib (10 μM)) was 29%, the “Response rate % (average)” value ([6]; Olmutinib (10 μM)) was 35% and the “Response rate % (average)” value ([6]; Regorafenib (5 μM)) was 14%. The “Response rate % (average)” value ([6]; Selumetinib (5 μM)) was 12%, the “Response rate % (average)” value ([6]; Sorafenib (5 μM)) was 22% and the “Response rate % (average)” value ([6]; Sunitinib (5 μM)) was 21%. For the same molecule, the “Response rate % (average)” value ([7]; Afatinib (10 μM)) was 36%, the “Response rate % (average)” value ([7]; Cabozantinib (5 μM)) was 32% and the “Response rate % (average)” value ([7]; Dabrafenib (10 μM)) was 8%. For the same molecule, the “Response rate % (average)” value ([7]; Everolimus (5 μM)) was 10%, the “Response rate % (average)” value ([7]; Infigratinib (15 μM)) was 17% and the “Response rate % (average)” value ([7]; Lapatinib (5 μM)) was 22%. For the same molecule, the “Response rate % (average)” value ([7]; Lenvatinib (10 μM)) was 25%, the “Response rate % (average)” value ([7]; Olmutinib (10 μM)) was 38% and the “Response rate % (average)” value ([7]; Regorafenib (5 μM)) was −2%. The “Response rate % (average)” value ([7]; Selumetinib (5 μM)) was 8%, the “Response rate % (average)” value ([7]; Sorafenib (5 μM)) was 28% and the “Response rate % (average)” value ([7]; Sunitinib (5 μM)) was 29%.

Source: patent publication US20250170090A1, “METHOD FOR PREVENTING OR TREATING DISEASE OR DISORDER ASSOCIATED WITH ANTINEOPLASTIC AGENT” (ONQUALITY PHARMACEUTICALS CHINA LTD., priority 2022, published 2025)
